The values below come from PubChem BioAssay (NCI).

Among the test systems are HS 578T breast; RXF 393 renal; HCT-15 colon; 786-0 renal; LOX IMVI melanoma; NCI-H226 lung; RPMI-8226 leukemia; UO-31 renal; SW-620 colon; IGROV1 ovarian.
Common to all, as to assay: growth of human tumour cells (NCI), 48 h

The structures appear in SMILES notation.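 In this assay, cells in 96-well plates receive the compound at five concentrations for 48 hours. Endpoints are linearly interpolated between the surrounding concentrations. Here, GI50 denotes the concentration required for 50% inhibition of growth. TGI is the concentration that stops growth completely.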

Regarding `CN1CC(C(=O)NC2(C)OC3(O)C4CCCN4C(=O)C(Cc4ccccc4)N3C2=O)C=C2c3cccc4[nH]cc(c34)CC21` (stereo not given), the TGI was 29 µM in the assay with HS 578T breast; 40.5 µM in the assay with RXF 393 renal; 45.9 µM in the assay with HCT-15 colon; 45 µM with 786-0 renal; 35.9 µM in the assay on LOX IMVI melanoma; 95.5 µM with NCI-H226 lung. The TGI with RPMI-8226 leukemia was greater than 100 µM; in the assay on UO-31 renal, 77.9 µM; with SW-620 colon, greater than 100 µM; in the assay on IGROV1 ovarian, 50.8 µM.
Regarding `CCCCCCN(CCCCCC)CC(O)c1cccc2ccc(Cl)cc12` (stereo not given), the GI50 is 8.36 µM in the assay with HS 578T breast; 2.16 µM in the assay with RXF 393 renal; 5.01 µM with HCT-15 colon; 10.9 µM in the assay with 786-0 renal; 4.14 µM in the assay on LOX IMVI melanoma; 4.89 µM with NCI-H226 lung. Moreover, the GI50 was 5.2 µM in the assay on RPMI-8226 leukemia, 4.85 µM in the assay on UO-31 renal, 3.82 µM in the assay on SW-620 colon and 10.3 µM in the assay on IGROV1 ovarian. Further, the TGI in the assay on HS 578T breast turned out to be 26.4 µM; in the assay with RXF 393 renal it was 7.71 µM; in the assay on HCT-15 colon it was 18.3 µM; with 786-0 renal, 23.7 µM; in the assay with LOX IMVI melanoma it was 15.6 µM; with NCI-H226 lung it was 18.2 µM. The TGI was found to be 22.4 µM with RPMI-8226 leukemia, 19.7 µM with UO-31 renal, 15 µM in the assay with SW-620 colon and 23.8 µM with IGROV1 ovarian.
